In US5468633A, “Human endothelin converting enzyme obtained from blood or placenta” (Nisshin Flour Milling Co., Ltd., priority 1993, dated 1995):

Test system: endothelin converting enzyme
Assay: Effects of various inhibitors on the activity of converting big endothelin-1 to endothelin-1 (residual enzymatic activity)
Assay type: biochemical, human
Settings: 37° C., 30 minutes preincubation, pH 7.0, untreated enzyme = 100
Description: 15 μl of a 20 nmol/ml big endothelin-1 solution was added to 0.3 ml of an enzyme solution (10 mM tris-hydrochloric acid-0.15M sodium chloride buffer; pH 7.0), and the mixture was reacted at 37° C. for 6 hours. After completion of the reaction, 6 μl of a 0.1M EDTA solution was added to terminate the reaction.
Subsequently, the resultant endothelin-1 was assayed according to a sandwich enzyme immunoassay (EIA) method. An enzymatic activity of converting 1 pmol of big endothelin-1 to endothelin-1 per hour under the above-described reaction conditions is termed 1 U (unit).
A sample and an endothelin standard solution of a predetermined concentration were respectively applied to a 96-hole microplate on which anti-endothelin monoclonal antibody had been immobilized to thereby cause the reaction. After washing the microplate, peroxidase-labeled anti-endothelin polyclonal antibody was added to thereby cause the reaction. After washing the microplate, activity of bound peroxidase was assayed. Endothelin-1 in the sample was assayed based on the calibration curve drawn by using endothelin standard solutions having a predetermined concentration of endothelin.
The enzyme of the invention was tested for the effects of various inhibitors against the activity of converting big endothelin-1 to endothelin-1.
The enzyme was incubated in 0.3 ml of a reaction solution (10 mM tris-hydrochloric acid-0.15M sodium chloride buffer; pH 7.0) containing various inhibitors at 37° C. for 30 minutes, and the residual enzymatic activity was measured in the above-described manner. Residual activities in the presence of various inhibitors are shown in Table 1 as relative activity taking the activity of untreated enzyme as 100.

Compound	Relative Activity (%) (inhibitor 0.1 mM)	also measured
CC(C)C[C@H](NC(=O)[C@@H](NC(=O)N[C@@H](Cc1ccccc1)C(=O)O)[C@@H]1CCN=C(N)N1)C(=O)N[C@H](C=O)Cc1ccccc1 [Chymostatin]	–	Relative Activity (%) (inhibitor 0.01 mM): 20%
O=S(=O)(F)Cc1ccccc1 [Phenylmethanesulfonyl fluoride]	–	Relative Activity (%) (inhibitor 1 mM): 7%
CC(C)C[C@H](NP(=O)(O)O[C@@H]1O[C@@H](C)[C@H](O)[C@@H](O)[C@H]1O)C(=O)N[C@@H](Cc1c[nH]c2ccccc12)C(=O)O [Phosphoramidon]	0	–
O=C(O)CNC(=O)C(CS)Cc1ccccc1 (stereo not shown) [Thiorphan]	0	–
